In general, inhibition refers to the share of the control response that was lost under treatment.

Molecules are shown by their SMILES. pIC50: −log10 of the molar value. Like-named read-outs stand apart in the source and are kept apart here.

The target of this assay is T1, PAR4 (Homo sapiens, UniProt Q96RI0).
T1 sequence (Q96RI0 18-385): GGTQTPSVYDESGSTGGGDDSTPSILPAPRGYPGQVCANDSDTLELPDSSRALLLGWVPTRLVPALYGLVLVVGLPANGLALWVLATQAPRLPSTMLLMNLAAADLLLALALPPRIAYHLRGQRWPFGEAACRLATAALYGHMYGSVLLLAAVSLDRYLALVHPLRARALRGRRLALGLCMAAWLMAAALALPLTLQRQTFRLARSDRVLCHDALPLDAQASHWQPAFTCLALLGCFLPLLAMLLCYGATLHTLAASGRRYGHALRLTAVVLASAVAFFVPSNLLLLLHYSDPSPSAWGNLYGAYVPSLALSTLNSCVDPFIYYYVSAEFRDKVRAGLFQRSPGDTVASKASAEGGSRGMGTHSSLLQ
Put plainly: Human platelet activity assay, flow cytometry, γ-thrombin activation. It is filed as cell-based. The arrangement: endogenous in cells; host or cells: washed human platelets from healthy volunteers. The procedure: To test the antagonistic effect of the compounds on PAR4, a flow cytometry assay of human platelets was employed. Each compound was screened at 10 μM in human platelets using flow cytometry for GPIIbIIIa activation (PAC1) and P-selectin (CD62p) expression as previously described.[4] Activation of GPIIbIIIa allows interaction with divalent fibrinogen or multivalent von Willebrand factor, leading to platelet aggregation.[41] PAR4 stimulation also triggers α-granule secretion containing P-selectin.[5] […] Platelets were treated with each test compound or vehicle control DMSO before activating with γ-thrombin (100 nM) or PAR4 agonist peptide mimetic (200 μM, “PAR4-AP” AYPGKF) for 30 min. γ-thrombin activates PAR4 but not PAR1.[42]
Activation of washed human platelets was monitored by flow cytometry for the detection of PAC1 (GPIIbIIIa activation) and CD62p (P-selectin expression) binding as previously described.[4] Human platelets were obtained from healthy volunteers. The Vanderbilt University Internal Review Board approved these studies. Informed consent was obtained from all individuals prior to the blood draw. 10 mL of whole blood was collected into 0.32% Na citrate. Platelet-rich plasma was collected after room-temperature centrifugation at 1100 rpm for 15 min on a Thermo Forma 400 centrifuge (Thermo Fisher, Waltham, MA). 1/10 volume of acid citrate dextrose (ACD) buffer was added to the collected supernatant and incubated for 10 min. After centrifugation at 2400 rpm for 10 min, the platelet pellet was resuspended in 1 mL Tyrode’s buffer (“TBB”: 15 mM HEPES, 0.33 mM NaH2PO4, pH 6.4, 138 mM NaCl, 2.7 mM KCl, 1 mM MgCl2, 5.5 mM dextrose, 0.1% bovine serum albumin). Platelets were collected, counted on a Z1 Coulter Particle Counter (Beckman Coulter, Brea, CA), and diluted in TBB to 1.5 × 10^7 platelets/mL. 60 uL of platelets were aliquoted to each tube and preincubated with 40 μL of TBB with antibodies PAC1 FITC (Becton Dickinson, Franklin Lakes NJ) and P-selectin PE (Becton Dickinson) and either test compound antagonist or DMSO vehicle control for 20 min. Platelets were then activated with 100 nM γ-thrombin or other agonists for 30 min. Samples were then fixed by adding 100 μL of 2% paraformaldehyde. After 30 min, samples were diluted by adding 300 μL of phosphate-buffered saline (PBS) and stored at 4C. Data were collected on a three-laser BD LSRFortessa (Becton Dickinson) and analyzed with FlowJo software (FlowJo LLC, Ashland, OR). The mean fluorescence intensity (geometric) of PE and FITC was determined from 30,000 events after compensation correction. Data were normalized to vehicle (DMSO) controls.
Compounds were screened for inhibition activity against human PAR4 using 100 nM γ-thrombin or 200 μM PAR4-AP in a single-point assay (10 μM test compound).

Setting [1] is: human platelets, 100 nM γ-thrombin, GPIIbIIIa activation (PAC1), read-out: Human Platelets PAC1 IC50.
[2] abbreviates: human platelets, 100 nM γ-thrombin, P-selectin (CD62p), read-out: Human Platelets P-Sel IC50.
The mark [3] stands for this setting: Table 4 summary, read-out: human PAR4 IC50.

Turning to `Cc1nc(NC(=O)c2cc(-c3ccccc3)n(-c3ccccc3)n2)n[nH]1` [Compound 7], where the note is “10 μM compound, 100 nM γ-thrombin, human platelets, read-out: inhibition of platelet activation against γ-thrombin”, the inhibition at 10 µM was about 50%. The pIC50 reads like this: under setting [1], 5.64; under setting [2], 5.56; (γ-thrombin activation of PAR4, human platelets, read-out: IC50, concentration-response curve (CRC)) 5.64.
As for `O=C(Nc1nc[nH]n1)c1nn(-c2ccccc2)c2c1CCC2` [Compound 17], the pIC50 under setting [3] was 6.30, the pIC50 under setting [1] was 6.30 and the pIC50 under setting [2] is 6.22.
As to `Cn1nc(C(=O)Nc2n[nH]c(-c3c(F)cccc3F)n2)cc1C1CC1` [Compound 12], the pIC50 is 6.87 under setting [3], 6.87 under setting [1] and 6.82 under setting [2].
Take `COc1cccc(-c2nc(NC(=O)c3nn(-c4ccccc4)c4c3CCCC4)n[nH]2)c1` [Compound 32]: the pIC50 runs as follows: under setting [3], 6.92; under setting [1], 6.92; under setting [2], 6.75.
Take `O=C(Nc1n[nH]c(-c2ccc(F)cc2F)n1)c1nn(-c2ccccc2)c2c1CCCC2` [Compound 31]: the pIC50 is 6.93 under setting [1] and 6.87 under setting [2].
For the compound `Cc1cc(C(=O)Nc2n[nH]c(OC(F)F)n2)nn1-c1ccccc1` [Compound 9], the pIC50 was 6.23 under setting [3], 6.23 under setting [1] and 6.20 under setting [2].
